From patent publication US5372944A, “Method for conversion of halogenated hydrocarbons to halohydrins” (The Dow Chemical Company, priority 1993, dated 1994)

Columns and labels:
[1] = molecular target: partially purified TDTM-003 dehalogenase (Rhodococcus sp. TDTM0003, UniProt P59336); assay: Substrate profile of partially purified TDTM-003 dehalogenase; assay type: biochemical, Rhodococcus species TDTM-003; conditions: corrected for non-enzymatic hydrolysis
Protocol: (§1) Hydrolytic dehalogenase enzyme activity was evaluated by adding an appropriate amount of cell free extract or enzyme preparation to 5.0 mL of 100 mM glycine buffer, pH=9.0 in a 7 mL glass vial. The halogenated substrate (5.0 μl) and a small stir bar were added, and the vial capped. Reaction was initiated by transfer to a 30° C. water bath equipped with a magnetic stirrer. Periodically 1.0 mL samples were removed and assayed for free halide. Rates were determined after correcting for non-enzymatic hydrolysis with an appropriate blank. A standard curve was prepared using sodium chloride.
Frozen pellets from 2 liters of culture were thawed into 150 mL of 10 mM Tris sulfate buffer, pH=7.5 containing 1 mM disodium EDTA. This buffer was used throughout the entire purification. The suspension was sonicated for approximately 1 hour with ice cooling using a Microson Ultrasonic Cell Disrupter and centrifuged at 10,000 rpm for 15 minutes to remove cell debris. Supernatant was removed and the sonication/centrifugation repeated with fresh buffer to increase enzyme yield. Overall sonication efficiency was monitored by absorbence at 280 nm. Cell free extracts were combined and brought slowly to 30 percent saturation with solid ammonium sulfate. The suspension was centrifuged at 10,000 rpm for 30 minutes and the pellet discarded. The supernatant was brought to 70 percent saturation with solid ammonium sulfate and centrifugation repeated. Supernatant was discarded and the pellet taken up in a small volume of buffer and dialyzed overnight against 1 liter of the same. The preparation was applied to a 1.5×15cm column of DEAE-Sephadex equilibrated with the same buffer elution carried out with a 1 liter gradient from 0 to 400 mM ammonium sulfate. Fractions of about 7-8 mLs were collected. The active fractions were pooled and brought to 90 percent saturation with ammonium sulfate. The pellet was taken up in a minimal amount of buffer, ultrafiltered to 2.5 mL using 10,000 MWCO Novacell Ultrafiltration cell, and applied to a 1.5×90 cm Sephadex G-100 column. Elution was by gravity at 90 cm and fractions of 7-8 mLs were collected. Active fractions were poled, brought to 30 percent saturation with ammonium sulfate, and applied to a 10 ml column of Butyl-agarose equilibrated in the same. Elution was performed with a 500 mL gradient from 30 percent-0 percent ammonium sulfate. Active fractions were pooled, dialyzed and used for substrate selectivity studies.
To evaluate the substrate selectivity of haloalkane dehalogenase from isolated Rhodococcus species, an enzyme preparation from the strain designated TDTM-003 was purified by the procedure described under General Experimental. This preparation provided a dehalogenase which was approximately 50 percent pure as estimated by SDS-PAGE and was free of interfering halohydrin dehalogenase activity.
The activity of this partially purified TDTM-003 dehalogenase preparation was evaluated against various chlorinated and brominated substrates. Each enzymatic rate was corrected for non-enzymatic hydroloysis.

[2] = tested on: dehalogenase in cell free extracts of Rhodococcus Rhodochrous, TDTM-003; assay: Primary screen of dehalogenase activity in cell free extracts of TDTM-003; assay type: biochemical
Protocol: Following overnight growth, 50 μl of 1-chlorobutane was added to induce the dehalogenase. After 24 hours induction, cells were harvested by centrifugation, resuspended in cold 10mM Tris sulfate/1 mM disodium EDTA, pH=7.5, and disrupted by sonication. Cell debris was removed by centrifugation at 10,000 rpm for 30 minutes, cell free extracts dialyzed overnight against the same buffer, and assayed without dilution for dehalogenase activity.
Free chloride or bromide was assayed qualitatively using a chloride electrode (Orion), or quantitatively using the colorimetric method (430 nm) described by J. G. Bergmann, et al., Anal. Chem., 29:241-243 (1957).
as §1
Preliminary studies were performed on cell free extracts of TDTM-003 to evaluate the enzyme substrate selectivity, and the results of this study are shown in Table 2.

TDTM-003-60-2-11 [3] = assay: Utilization of carbon containing compounds for growth in liquid culture, TDTM-003-60-2-11; assay type: cell-based, Rhodococcus species ATCC 55388;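 further: minus means no visible growth and plus means good growth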
Source text: A representative double mutant designated TDTM-003-60-2-11, made by the above example was deposited at the American Type Culture Collection on Jan. 28, 1993 and given the ATCC designation 55388.

TDTM-003 = assay: Utilization of carbon containing compounds for growth in liquid culture, TDTM-003; assay type: cell-based, Rhodococcus species; conditions: liquid culture
TDTM-003-60-2-11 [4] = assay: Dehalogenation by double mutant strain TDTM-003-60-2-11 in shake flask with bulb feeder; assay type: cell-based, Rhodococcus sp.; conditions: after 120 hours
Source text: For gas chromatography (GC) analysis of halogenated metabolites, cultures were centrifuged briefly to remove cells, saturated with sodium sulfate, and an equivalent volume of methylene chloride added. The suspension was vortexed vigorously, centrifuged to break the emulsion and the methylene chloride phase removed.
Analysis of all halocarbon substrates and products from culture broths was done by GC using a Hewlett Packard 5710 equipped with a 7671A Autoinjector with the following protocol:
Dehalogenation of 1,2-dichloropropane by the double mutant strain of Rhodococcus sp., designated TDTM-003-60-2-11 was assayed in the following manner: 5 mL of an overnight culture (16 hours) were used as inoculum for 50 mL MM1X4P containing 5 g/L disodium succinate in a 250 mL flask. At 4 and 8 hours growth, 10 μL of 1-chlorobutane was added to induce the dehalogenase enzyme. Following 24 hours of growth, cells were harvested by centrifugation, resuspended into 50 mL of fresh MM1X4P, and transferred to a sterile 250 mL shake flask equipped with a bulb feeder. To the bulb feeder was added 1,2-dichloropropane and incubation continued at 28° C. and 150 rpm. […] The production of halohydrin products was monitored by gas chromatography. 1 -Chloro-2-propanol and 2-chloro-1-propanol accumulate linearly in the culture broth to 74 parts-per-million (ppm) (w/v) and 20 ppm (w/v) respectively after 120 hours. The overall rate of halohydrin production is 0.60 mg/g dry cells/hr.
The procedure described in Example 6 was followed except 1,2-dichlorobutanereplaced 1-chlorobutane in the bulb feeder.
The procedure described in Example 6 was followed except 1,2,3-trichloropropane replaced 1-chlorobutane in the bulb feeder.

Sequence of partially purified TDTM-003 dehalogenase (P59336 whole entry): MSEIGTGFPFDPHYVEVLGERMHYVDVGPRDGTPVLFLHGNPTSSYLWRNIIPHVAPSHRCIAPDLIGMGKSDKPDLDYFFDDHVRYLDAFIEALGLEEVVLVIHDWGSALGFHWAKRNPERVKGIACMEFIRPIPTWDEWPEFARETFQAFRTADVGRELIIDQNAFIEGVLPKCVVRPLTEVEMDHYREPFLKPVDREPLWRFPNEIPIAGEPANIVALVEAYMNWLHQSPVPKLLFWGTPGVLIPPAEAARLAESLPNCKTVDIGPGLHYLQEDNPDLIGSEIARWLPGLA

CCC(Br)CBr (stereo not shown) [1,2-dibromobutane]
Relative Rate of Halogen Release, 1-Chlorobutane = 100 [1]: 756.000

BrCCBr [1,2-dibromoethane]
Relative Rate of Halogen Release, 1-Chlorobutane = 100 [1]: 1318.000

CC(Br)CBr (stereo not shown) [1,2-dibromopropane]
Relative Rate of Halogen Release, 1-Chlorobutane = 100 [1]: 900.000

CC(C)(Cl)CCl [1,2-dichloro-2-methylpropane]
Relative Rate of Halogen Release, 1-Chlorobutane = 100 [1]: 0.000
Relative Rate of Chloride Release, 1-chlorobutane = 100 [2]: 300

ClCCCl [1,2-dichloroethane]
Relative Rate of Halogen Release, 1-Chlorobutane = 100 [1]: 4.400
Relative Rate of Chloride Release, 1-chlorobutane = 100 [2]: 2.8

CC(Br)CCBr (stereo not shown) [1,3-dibromobutane]
Relative Rate of Halogen Release, 1-Chlorobutane = 100 [1]: 155.000

BrCCCBr [1,3-dibromopropane]
Relative Rate of Halogen Release, 1-Chlorobutane = 100 [1]: 771.000

OC(CCl)CCl [1,3-dichloro-2-propane]
Utilization of carbon source for growth, TDTM-003-60-2-11 (TDTM-003-60-2-11 [3]): -
Utilization of carbon source for growth, TDTM-003 (TDTM-003): +/-

CC(Cl)CCCl (stereo not shown) [1,3-dichlorobutane]
Relative Rate of Halogen Release, 1-Chlorobutane = 100 [1]: 81.000
Relative Rate of Chloride Release, 1-chlorobutane = 100 [2]: 63

ClCCCCl [1,3-dichloropropane]
Relative Rate of Halogen Release, 1-Chlorobutane = 100 [1]: 253.000
Relative Rate of Chloride Release, 1-chlorobutane = 100 [2]: 203

BrCCCCBr [1,4-dibromobutane]
Relative Rate of Halogen Release, 1-Chlorobutane = 100 [1]: 294.000

ClCCCCCl [1,4-dichlorobutane]
Relative Rate of Halogen Release, 1-Chlorobutane = 100 [1]: 261.000
Relative Rate of Chloride Release, 1-chlorobutane = 100 [2]: 178

ClCCCCCCl [1,5-dichloropentane]
Relative Rate of Halogen Release, 1-Chlorobutane = 100 [1]: 173.000
Relative Rate of Chloride Release, 1-chlorobutane = 100 [2]: 112

BrCCCCCCBr [1,6-dibromohexane]
Relative Rate of Halogen Release, 1-Chlorobutane = 100 [1]: 244.000

ClCCCCCCCl [1,6-dichlorohexane]
Relative Rate of Halogen Release, 1-Chlorobutane = 100 [1]: 252.000
Relative Rate of Chloride Release, 1-chlorobutane = 100 [2]: 169

BrCCCCCCCCBr [1,8-dibromooctane]
Relative Rate of Halogen Release, 1-Chlorobutane = 100 [1]: 173.000

ClCCCCCCCCCCCl [1,10-dichlorodecane]
Relative Rate of Halogen Release, 1-Chlorobutane = 100 [1]: 52.000
Relative Rate of Chloride Release, 1-chlorobutane = 100 [2]: 124

CCC(O)CCl (stereo not shown) [1-Chloro-2-butanol]
halohydrin accumulated in culture broth (TDTM-003-60-2-11 [4]; substrate 1,2-dichlorobutane): 6.5 ppm (w/v)

ClCCBr [1-bromo-2-chloroethane]
Relative Rate of Halogen Release, 1-Chlorobutane = 100 [1]: 751.000

CCCCBr [1-bromobutane]
Relative Rate of Halogen Release, 1-Chlorobutane = 100 [1]: 265.000
Relative Rate of Chloride Release, 1-chlorobutane = 100 [2]: 362

CCCCCCCCCCBr [1-bromodecane]
Relative Rate of Halogen Release, 1-Chlorobutane = 100 [1]: 98.000

CCCCCCBr [1-bromohexane]
Relative Rate of Halogen Release, 1-Chlorobutane = 100 [1]: 162.000

CCCCCCCCBr [1-bromooctane]
Relative Rate of Halogen Release, 1-Chlorobutane = 100 [1]: 414.000

CCCCCBr [1-bromopentane]
Relative Rate of Halogen Release, 1-Chlorobutane = 100 [1]: 203.000

CCCBr [1-bromopropane]
Relative Rate of Halogen Release, 1-Chlorobutane = 100 [1]: 459.000

CC(C)CCl [1-chloro-2-methylpropane]
Relative Rate of Chloride Release, 1-chlorobutane = 100 [2]: 117

CC(O)CCl (stereo not shown) [1-chloro-2-propanol]
halohydrin accumulated in culture broth (TDTM-003-60-2-11 [4]; substrate 1,2-dichloropropane): 74 ppm (w/v)
